Entries after “also recorded” stand apart in the source; their conditions may differ.
Legend:
[1] = system: OVCAR-5 cells; assay: Cell viability assay (SRB): sensitization of OVCAR-5 cells to FK866; type: cell-based; settings: for combination index (CI) with FK866: 0.3 µM nicotinic acid in medium; for cell viability, single-agent treatment: 72 h, 100 nM FK866 alone or 1 mM 2-HNA alone
From the text: The first assay that we performed to test the putative NAPRT inhibitors was based on the principle that NAPRT-expressing OVCAR-5 cells are resistant to FK866 whereas the simultaneous chemical inhibition of NAPRT with 2-HNA renders the cells sensitive to the NAMPT inhibitor due to the cooperation between FK866 and 2-HNA in depleting the intracellular NAD pool. […] Thus, 2-HNA was used throughout the study as a positive control in our cell viability assay and any test compound resembling its activity was considered a potential NAPRT inhibitor. It is worth mentioning that, to reflect the physiological contribution of the Preiss–Handler pathway to NAD biosynthesis, all cell-based assays that are presented in this study were performed under a nicotinic acid concentration of 0.3 µM in the cell culture medium (Figure S1).
We decided to use combination index (CI) as a measure to determine the degree of interaction between FK866 and the test compounds i.e., to identify potential new NAPRT inhibitors. A CI < 1 indicates a synergistic interaction between the test compound and FK866 in decreasing cell viability. A CI = 1 and a CI > 1 are indicative of an additive and of an antagonistic effect, respectively.
A total of 3 × 10^3 OVCAR-5 cells/well were plated in 96-well plates in the regular culture medium. 24 h later the cell medium was removed and the cells were subsequently incubated either in the regular medium that was supplemented with 0.3 µM nicotinic acid (control wells) or in the treatment medium which contained 0.3 µM nicotinic acid and combinations of 100 nM FK866, 1 mM 2-HNA, and 100 µM of test compounds. Each condition was performed in triplicate and the cells remained under treatment for a total of 72 h at 37 °C. Thereafter, the culture plates were fixed with 10% trichloroacetic acid at 4 °C for 20 min, washed with cold water, and dried overnight. The plates were stained with 0.04% sulforhodamine B (SRB) in 1% acetic acid, washed four times with 1% acetic acid to remove the unbound dye, and dried overnight. Lastly, Trizma®-base 10 mM was added to the plates and cell viability was quantified by absorbance measurements on a Tecan Infinite® 200 PRO instrument.
To quantify the extent of the interaction between FK866 and the putative NAPRT inhibitors or 2-HNA, we applied the combination index (CI) equation that is depicted below:(1) CI=mortality % A+mortality % B /mortality % A+B where: ‘A’ refers to the treatment of cells with FK866 100 nM; ‘B’ refers to the treatment of cells with the test compound 100 µM or 2-HNA 1 mM; ‘A + B’ refers to the coadministration of FK866 100 nM and the test compound at 100 µM or 2-HNA 1 mM. A synergistic interaction is evidenced by CI < 1, additive effect produces CI close to 1, whereas CI > 1 corresponds to antagonistic effect.

[2] = system: intracellular NAD+ levels in OVCAR-5 cells; assay: Intracellular NAD+ quantification (enzyme cycling assay); type: cell-based; settings: for drop in NAD+ levels / interaction with FK866 in NAD+ reduction: test compound 100 µM + 30 nM FK866, 20 h
Protocol: The assay that was performed on OVCAR-5 cell viability led to a set of potential NAPRT inhibitors, namely IM 29, IM 38, IM 43, IM 49, MMB-128, MMB-131, MMB-268, and MMB-312. In order to confirm that the cited compounds sensitized OVCAR-5 cells to the NAMPT inhibitor FK866 by interfering with NAD biosynthesis, we quantified the intracellular NAD^+ levels in OVCAR-5 cells after 20-h treatments with these compounds with or without FK866.
Figure 3 A subset of test compounds cooperates synergistically with FK866 in decreasing intracellular NAD^+ levels in OVCAR-5 cells. The compounds were administered to cells alone or in combination with FK866 for 20 h. Quantification of NAD^+ was performed via an enzyme cycling assay and normalized to cell lysate protein content. The results are the mean ± SD of two technical replicates with two biological replicates each. *, p < 0.05; **, p < 0.01; ***, p < 0.001 vs. the respective control, i.e., FK866-untreated control for the test compounds that were administered alone to cells, and FK866-treated control for the combinations of test compound and FK866; §, p < 0.05 versus FK866-untreated, control cells.
A total of 1 × 10^5 OVCAR-5 cells/well were plated in 24-well plates in the regular culture medium. 24 h later the cell medium was removed and the cells were cultured either in the regular medium that was supplemented with 0.3 µM nicotinic acid (control wells) or in the treatment medium (regular medium with 0.3 µM nicotinic acid and combinations of 30 nM FK866, 1 mM 2-HNA and 100 µM of test compounds). Each condition was performed in duplicate and the cells remained under treatment for a total of 20 h at 37 °C. Thereafter, the cell medium was removed and the cells were harvested and lysed with 0.6 M perchloric acid (PCA). Samples in PCA were neutralized by diluting the extracts in 100 mM sodium phosphate buffer (pH 8) and the total intracellular NAD^+ content was determined with a sensitive enzyme cycling assay that exploits the use of alcohol dehydrogenase. The obtained NAD^+ values were normalized to cell lysate protein content that was quantified by the Bradford method.

[3] = Preparation of 50 mM stock solution in DMSO; type: physicochemical
Protocol: As noted in the methodology section, a 50 mM stock solution in DMSO was prepared for each compound.
Compounds were obtained in mg quantity and subsequently dissolved in DMSO to prepare a 50 mM stock solution. The purity of all compounds was > 95%, as declared by vendors or collaborators.

[4] = biological target: T1, recombinant hNAPRT (Homo sapiens, UniProt Q6XQN6); assay: hNAPRT melting temperature determination (DSF); type: binding; settings: 100 μM inhibitor, 5 μM hNAPRT
T1 construct: His-tag (C); made in house; host or cells: E. coli
T1 sequence (Q6XQN6 1-538): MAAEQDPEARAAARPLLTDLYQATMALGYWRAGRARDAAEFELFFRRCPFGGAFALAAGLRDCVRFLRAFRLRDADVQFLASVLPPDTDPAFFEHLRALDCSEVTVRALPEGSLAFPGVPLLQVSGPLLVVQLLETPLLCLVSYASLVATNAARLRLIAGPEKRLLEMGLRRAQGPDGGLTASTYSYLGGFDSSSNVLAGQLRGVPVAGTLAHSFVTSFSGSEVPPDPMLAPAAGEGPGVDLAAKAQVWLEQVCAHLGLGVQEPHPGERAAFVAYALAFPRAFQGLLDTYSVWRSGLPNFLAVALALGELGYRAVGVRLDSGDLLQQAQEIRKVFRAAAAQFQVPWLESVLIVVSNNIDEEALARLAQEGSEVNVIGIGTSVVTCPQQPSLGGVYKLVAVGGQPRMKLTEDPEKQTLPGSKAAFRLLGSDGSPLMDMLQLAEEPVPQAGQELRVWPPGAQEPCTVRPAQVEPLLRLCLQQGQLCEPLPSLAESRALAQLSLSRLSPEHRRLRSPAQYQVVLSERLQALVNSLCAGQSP
Protocol: With the purpose to provide support to the results that were obtained in the enzymatic activity assay, the ability of the new hNAPRT inhibitors to stabilize the protein through binding was evaluated via the measurement of the hNAPRT melting temperature in the presence or absence of the inhibitors at a 100 μM concentration. The resulting Tm shifts are depicted in Figure 5. […] A plausible explanation for this outcome is that larger compounds are more likely to establish a higher number of interactions and thus result in greater stabilization of a given protein.
Figure 5 NAPRT inhibitors MMB-128 and MMB-131 directly engage recombinant hNAPRT. Differential scanning fluorimetry (DSF) was used to determine the thermal stabilization of hNAPRT protein upon inhibitor binding. Recombinant hNAPRT protein was exposed to 100 μM hNAPRT inhibitors over a defined temperature gradient and the melting temperature Tm was calculated for each compound. The data are shown as means ± standard error of the means (SEM) of two technical replicates with three biological replicates each. * p < 0.05; unpaired t-test.
The melting temperature ™ of hNAPRT was determined through the differential scanning fluorimetry (DSF) technique. Triplicates of 100 μM of each test compound and DMSO were added to a 96-well clear bottom BioRad PCR plate. Subsequently, DSF protein buffer, containing 5 μM of recombinant hNAPRT protein and 5X SPYRO® Orange (S5692, Sigma-Aldrich) in 20 mM HEPES pH 7.5, 100 mM NaCl, 10 mM Mg-acetate, and 1 mM DTT was added. The plate was sealed and exposed to a temperature gradient from 20 to 95 °C in a BioRad CFX96 Real-Time System. The fluorescence for each temperature increment was measured at 465–580 nm with an excitation wavelength of 465 nm. The DSF templates that were provided by Niesen et al. were used for data analysis followed by GraphPad Prism 8 for statistical analysis of the generated data.

[5] = biological target: T1, recombinant hNAPRT; assay: hNAPRT inhibition assay (HPLC of NA and NAMN); type: biochemical; settings: for IC50: 100 µM nicotinic acid, 200 µM PRPP, 45 min at 37 °C, formation of NAMN
Protocol: hNAPRT was expressed in E. coli with an N-terminal His-tag and purified as described above. The enzymatic reactions were carried out at 37 °C in standard reaction mixtures containing 50 mM Tris-HCl, pH 7.4, 10 mM KCl, 2 mM MgCl2, 100 µM nicotinic acid, 200 µM PRPP, 0.1 mg/mL purified recombinant hNAPRT, and the test compound at five different concentrations ranging from 20 µM to 1000 µM.
Blank mixtures without compounds but with equal amounts of DMSO were set in parallel and their rates fixed as 100% activity. NAPRT was pre-incubated with the compounds for 5 min and reactions were started by the addition of the enzyme substrates and stopped after 45 min of incubation by heating to 85 °C for 3 min. Following centrifugation of the reaction mix, the supernatant was analyzed by HPLC by injection into a reverse-phase column (XTerra MS C18 Column, 125Å, 5 μm, 4.6 × 150 mm, Waters). The eluted species were monitored at 260 nm and the peaks of nicotinic acid and nicotinic acid mononucleotide were quantified with reference to standard curves. The percentage of nicotinic acid conversion was calculated for each reaction and the IC50 values for the active compounds were determined with GraphPad Prism 8 software (GraphPad Software, S. Diego, CA, USA).

[6] = test compound 100 µM + 100 nM FK866, 72 h

Row | SMILES | cytotoxicity in combination with FK866 [1, 6] | drop in NAD+ levels [2] | Tm shift of hNAPRT [4] | IC50 [5] [µM] | further results
1 | O=C(O)c1cccnc1O [Compound 2-HNA, 2-hydroxynicotinic acid, reference compound] | – | – | – | – | cytotoxicity of co-treatment with FK866 ([1]; 1 mM 2-HNA + 100 nM FK866, 72 h): pronounced cell death; also recorded: marked cytotoxicity; combination index (CI) with FK866 ([1]; 2-HNA 1 mM + 100 nM FK866, 72 h): 0.08; cell viability, single-agent treatment [1]: withstood; drop in intracellular NAD+ concentration ([2]; 1 mM 2-HNA + 30 nM FK866, 20 h): 86%
2 | O=C(/C=C/c1cccnc1)NCCCCC1CCN(C(=O)c2ccccc2)CC1 [FK866, reference compound] | – | – | – | – | cell viability, single-agent treatment [1]: withstood; decrease of intracellular NAD+ levels ([2]; 30 nM FK866 alone, 20 h): 24%
3 | Cc1cc(C(=O)O)nc(N)n1 [IM 28] | – | – | – | – | solubility in DMSO [3]: could not be solubilized
4 | NCc1cc2c(cc1Cl)OCO2 [IM 29] | high cytotoxicity | 42.9–56.4% | remained unchanged | 160 | potentiation of the effect of FK866 in reducing intracellular NAD levels ([2]; combination with FK866): more than two-fold
5 | CC(Oc1ccccc1Cl)C(=O)Nc1cccc(C(=O)O)c1 (stereo not drawn) [IM 38] | less pronounced cytotoxicity | 42.9–56.4% | remained unchanged | 265 | –
6 | COc1ccc2cc(C=O)c(O)nc2c1 [IM 43] | high cytotoxicity | – | – | – | interaction with FK866 in NAD+ reduction [2]: additive effects
7 | O=C(Cn1c(=O)sc2ccccc21)Nc1cccc(C(=O)O)c1 [IM 49] | less pronounced cytotoxicity | – | remained unchanged | 232 | interaction with FK866 in NAD+ reduction [2]: lower degree of synergism; effect on intracellular NAD+ levels, compound alone ([2]; test compound 100 µM alone, 20 h): strongly reduced
8 | CC(C)(C)C(=O)OCCCn1cc(CCCN2CC(O)C(O)C2CNC(=O)c2ccccc2)nn1 (stereo not drawn) [MMB-128] | high cytotoxicity | 42.9–56.4% | approximately 0.5 °C | – | –
9 | CC(C)(C)C(=O)OCCCn1cc(CCCN2CC(O)C(O)C2Cn2cc(-c3ccccc3)nn2)nn1 (stereo not drawn) [MMB-131] | less pronounced cytotoxicity | 42.9–56.4% | approximately 0.5 °C | 242 | –
10 | OC1CNC(Cn2cc(-c3cc(C(F)(F)F)cc(C(F)(F)F)c3)nn2)C1O (stereo not drawn) [MMB-268] | high cytotoxicity | 42.9–56.4% | – | – | inhibition of hNAPRT ([5]; data not shown): negligible inhibition
11 | COc1cc(OC)cc(-c2cn(CC3NCC(O)C3O)nn2)c1 (stereo not drawn) [MMB-312] | less pronounced cytotoxicity | – | – | – | combination index (CI) with FK866 ([1]; test compound 100 µM + 100 nM FK866, 72 h, CI < 1 synergistic): 0.12; interaction with FK866 in NAD+ reduction [2]: additive effects

Source: article PMC9320560, “Structure-Based Identification and Biological Characterization of New NAPRT Inhibitors” (Pharmaceuticals, 2022)
